Earlier results as cited in patent US20070244041A1, “Peptide Yy Analogues” (Reoscience A/S, priority 2004, published 2007).
No end group written: not given here.

Tests used:
vagal motor neurons = conditions: applied onto vagal motor neurons

Row | Substance | selectivity for Y2 over Y1 receptors (Y2 over Y1 receptors) | vagal motor neurons activated (vagal motor neurons) | vagal motor neurons with inhibited firing rate (vagal motor neurons)
1 | NPY3-36: truncated neuropeptide Y with high selectivity for Y2 over Y1 receptors | high selectivity | – | –
2 | PYY13-36: truncated PYY, a Y2 selective agonist (SPEELNRYYASLRHYLNLVTRQRY; ends and bridges not checked; UniProt P10082 41-64, looked up, fragment) | – | approximately 5% | approximately 50%
